pIC50: −log10 of the molar value. Several values for one entry are separate records, joined by “and”; a condition that tells them apart may be missing. Equal entries are not always repeated.
Test system: 832693-133-R-J1-PDC multi-cell spheroids, viability
Experiment: Anticancer human tumor 832693-133-R-J1-PDC patient-derived head and neck squamous carcinoma cell line growth inhibition [IpAb]
Conditions: for viability, T/C: stronger effect = lower value
Source text: Combinatorial screen of targeted agents with ipatasertib and abemaciclib in multi-cell type tumor spheroids
A high-throughput screen of multi-cell type tumor spheroids was designed to identify active combinations of targeted small molecules and ipatasertib or abemaciclib. Complex spheroids include a stromal component modeled by human endothelial cells (HUVEC) and fibroblasts modeled by human mesenchymal stem cells (MSCs). The concentration ranges selected for each drug and investigational agent were based upon clinically achievable concentrations if the clinical Cmax of the agent was known.
Compounds. The drugs and investigational agents: ipatasertib (NSC767898), abemaciclib(NSC768073), selumetinib (NSC741078), trametinib (758246), adavosertib (NSC754352), everolimus (NSC733504), sapanisertib (NSC764658), vemurafenib (NSC761431), venetoclax (NSC766270), copanlisib (NSC809693), apelisib (NSC765974), palbociblib (NSC758247), vemurafenib (NSC761431), dabrafenib (NSC764134), ravoxertinib (NSC781343), BMS-387032 (NSC767048), sotorasib (NSC818433), talazoparib (NSC767125) and afursertib (NSC778305), were obtained from the National Cancer Institute (NCI) Developmental Therapeutics Program Chemical Repository. The FDA-approved anticancer drug set is available from the NCI Developmental Therapeutics Program. […] The stock solutions were prepared in dimethyl sulfoxide (DMSO, Sigma-Aldrich, St. Louis, MO, cat. D2650) at 800-fold the tested concentration and stored at -70 degrees C prior to their use. All drugs and investigational agents were tested over a range starting from a high concentration at or near the clinical Cmax and decreasing in half-log increments. If the clinical Cmax for an agent had not been determined, the highest concentration tested was 10 microM.
NCI60 Cell Culture. NCI60 cell lines were obtained from the NCI Developmental Therapeutics Program Tumor Repository. For each lot of cells, the Repository performed Applied Biosystems AmpFLSTR Identifiler testing with PCR amplification to confirm consistency with the published Identifier STR profile for each cell line. Cells were kept in continuous culture for no more than 20 passages. The optimal seeding densities for each of the cell lines at each time point assessed were determined prior to performing the concentration response studies. Briefly, the NCI60 human tumor lines were grown as monolayers in RPMI 1640 medium supplemented with 10% FBS and 2 mmol/L L-glutamine.
An additional 9 lines were from the NCI60 cell line panel including MDA-MB-231 breast carcinoma, MDA-MB-468 breast carcinoma, MCF7 breast carcinoma, Hs578T breast carcinoma, MALME-3M melanoma, SK-MEL-2 melanoma, SK-OV-3 ovarian carcinoma, DU-145 prostate carcinoma, PC-3 prostate carcinoma, all cell lines along with major genetic alterations are listed on Table 2. Pooled donor human umbilical vein endothelial cells (HUVEC, Lonza, cat. CC-2519) and human mesenchymal stem cells (hMSC, Lonza, cat. PT-2501) were purchased from Lonza (Walkersville, MD).
PDMR cell lines were grown in complete medium (DC medium): Dulbecco's modified Eagle's medium (DMEM)/F12 supplemented with 5% fetal bovine serum (FBS), 2 mM L-glutamine, 100 U/mL penicillin and 100 µg/ml streptomycin, 0.4 µg/ml hydrocortisone, 10 ng/ml epidermal growth factor (EGF) recombinant human protein, 24 µg/mL adenine, and 0.1 mg/mL primocin. During culture from frozen stock vials, PDMR cells were cultured in the same medium containing 10 µM Y-27632 (see Table 3). The PDCs were cultured in complete DMEM/F12 media without 10 microM Y-27632 dihydrochloride for at least two passages prior to the screen. The pooled donor HUVEC and hMSC were cultured in endothelial cell growth medium 2 (PromoCell, Heidelberg, Germany, cat. C-22011) and mesenchymal stem cell growth medium 2 (PromoCell, cat. C-28009), respectively. For all experiments, HUVEC and hMSC were used at passages </=5.
[…]
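Note: spheroids exposed to the drugs for one week before the viability readout.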
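Throughout, for viability, T/C: 100% = DMSO vehicle control wells.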

**Q.** How did the viability, T/C (compound 0.0316 µM) turn out when Cn1nccc1Nc1nccc(-c2ccn(C(CO)c3ccc(Cl)c(F)c3)c(=O)c2)n1 (configuration not stated) was run?
**A.** Its viability, T/C is 97.1% and 93.1%.

**Q.** What about the viability, T/C (compound 0.1 µM) of the same compound?
**A.** The viability, T/C was 77% and 82.1%.

**Q.** What about the viability, T/C (compound 0.316 µM) of the same compound?
**A.** The viability, T/C was 64.1% and 70.2%.

**Q.** And the viability, T/C (compound 1 µM)?
**A.** Its viability, T/C is 57.1% and 65.9%.

**Q.** And the viability, T/C (compound 3.16 µM)?
**A.** The viability, T/C was 34.3% and 33.6%.

**Q.** What about the viability, T/C (compound 10 µM) of the same compound?
**A.** The viability, T/C was 13% and 24.2%.

**Q.** What about the pIC50 (curve of compound) of the same compound?
**A.** The pIC50 was 5.97 and 5.78.

**Q.** How did the pIC50 (curve of first compound, second compound 0.1 µM) turn out when CC(C)(C)c1cnc(CSc2cnc(NC(=O)C3CCNCC3)s2)o1 + CC(C)NCC(C(=O)N1CCN(c2ncnc3c2C(C)CC3O)CC1)c1ccc(Cl)cc1 was run?
**A.** Its pIC50 is 6.66.

**Q.** What about the pIC50 (curve of first compound, second compound 0.316 µM) of the same compound?
**A.** Its pIC50 is 6.72.

**Q.** And the pIC50 (curve of first compound, second compound 1 µM)?
**A.** The pIC50 was 6.86.

**Q.** And the pIC50 (curve of first compound, second compound 3.16 µM)?
**A.** Its pIC50 is 6.88.

**Q.** And the pIC50 (curve of first compound, second compound 10 µM)?
**A.** The pIC50 was 6.80.

**Q.** And the viability, T/C (second compound 0.1 µM, first compound 0.00949 µM)?
**A.** Its viability, T/C is 101%.

**Q.** And the viability, T/C (second compound 0.1 µM, first compound 0.03 µM)?
**A.** The viability, T/C was 122%.

**Q.** And the viability, T/C (second compound 0.1 µM, first compound 0.0949 µM)?
**A.** The viability, T/C was 146%.

**Q.** And the viability, T/C (second compound 0.1 µM, first compound 0.3 µM)?
**A.** The viability, T/C was 22.2%.

**Q.** And the viability, T/C (second compound 0.1 µM, first compound 0.949 µM)?
**A.** Its viability, T/C is 1.14%.

**Q.** And the viability, T/C (second compound 0.1 µM, first compound 3 µM)?
**A.** Its viability, T/C is 1.67%.

**Q.** And the viability, T/C (second compound 0.316 µM, first compound 0.00949 µM)?
**A.** The viability, T/C was 92.5%.

**Q.** And the viability, T/C (second compound 0.316 µM, first compound 0.03 µM)?
**A.** The viability, T/C was 94.2%.

**Q.** And the viability, T/C (second compound 0.316 µM, first compound 0.0949 µM)?
**A.** Its viability, T/C is 113%.

**Q.** What about the viability, T/C (second compound 0.316 µM, first compound 0.3 µM) of the same compound?
**A.** The viability, T/C was 16.5%.

**Q.** What about the viability, T/C (second compound 0.316 µM, first compound 0.949 µM) of the same compound?
**A.** Its viability, T/C is 0.85%.

**Q.** And the viability, T/C (second compound 0.316 µM, first compound 3 µM)?
**A.** The viability, T/C was 1.58%.

**Q.** And the viability, T/C (second compound 1 µM, first compound 0.00949 µM)?
**A.** Its viability, T/C is 67.7%.

**Q.** And the viability, T/C (second compound 1 µM, first compound 0.03 µM)?
**A.** Its viability, T/C is 70.7%.

**Q.** What about the viability, T/C (second compound 1 µM, first compound 0.0949 µM) of the same compound?
**A.** The viability, T/C was 75.6%.

**Q.** What about the viability, T/C (second compound 1 µM, first compound 0.3 µM) of the same compound?
**A.** The viability, T/C was 4.32%.

**Q.** What about the viability, T/C (second compound 1 µM, first compound 0.949 µM) of the same compound?
**A.** The viability, T/C was 1.17%.

**Q.** And the viability, T/C (second compound 1 µM, first compound 3 µM)?
**A.** Its viability, T/C is 1.18%.

**Q.** And the viability, T/C (second compound 3.16 µM, first compound 0.00949 µM)?
**A.** Its viability, T/C is 60%.

**Q.** What about the viability, T/C (second compound 3.16 µM, first compound 0.03 µM) of the same compound?
**A.** The viability, T/C was 68%.

**Q.** And the viability, T/C (second compound 3.16 µM, first compound 0.0949 µM)?
**A.** Its viability, T/C is 81.9%.

**Q.** And the viability, T/C (second compound 3.16 µM, first compound 0.3 µM)?
**A.** The viability, T/C was 1.46%.

**Q.** What about the viability, T/C (second compound 3.16 µM, first compound 0.949 µM) of the same compound?
**A.** Its viability, T/C is 1.05%.

**Q.** What about the viability, T/C (second compound 3.16 µM, first compound 3 µM) of the same compound?
**A.** Its viability, T/C is 1.4%.

**Q.** What about the viability, T/C (second compound 10 µM, first compound 0.00949 µM) of the same compound?
**A.** Its viability, T/C is 75%.

**Q.** What about the viability, T/C (second compound 10 µM, first compound 0.03 µM) of the same compound?
**A.** Its viability, T/C is 83.4%.

**Q.** And the viability, T/C (second compound 10 µM, first compound 0.0949 µM)?
**A.** Its viability, T/C is 108%.

**Q.** And the viability, T/C (second compound 10 µM, first compound 0.3 µM)?
**A.** The viability, T/C was 0.9%.

**Q.** And the viability, T/C (second compound 10 µM, first compound 0.949 µM)?
**A.** The viability, T/C was 1.13%.

**Q.** And the viability, T/C (second compound 10 µM, first compound 3 µM)?
**A.** The viability, T/C was 1.37%.

Reference: PubChem BioAssay AID2060337 (Molecular Pharmacology Branch, DTP, NCI, 2025)
